# Experimental data reported in article PMC4303209, “A novel phosphatidylinositol 3-kinase (PI3K) inhibitor directs a potent FOXO-dependent, p53-independent cell cycle arrest phenotype characterized by the differential induction of a subset of FOXO-regulated genes” (Breast Cancer Research : BCR, 2014).
# System: MCF-7 breast cancer cells
# Assay: Microarray gene expression analysis (Agilent whole human genome 4 x 44K; compound vs DMSO, LIMMA log2 fold change)
# Type: cell-based
# Conditions: Apoptosis genes
compound,measurement,setting,value
Oc1cccc(-c2nc(N3CCOCC3)c3oc4ncccc4c3n2)c1 [PI-103],CTNNA1 log2FC,Gene 1495,0.421
same,CTNNB1 log2FC,Gene 1499,0.098
same,CTSB log2FC,Gene 1508,0.047
same,CTSH log2FC,Gene 1512,-0.000676
same,CTSL log2FC,Gene 1514,0.329
same,CX3CR1 log2FC,Gene 1524,0.187
same,CYLD log2FC,Gene 1540,0.377
same,DAB2 log2FC,Gene 1601,-0.118
same,DAD1 log2FC,Gene 1603,-0.506
same,DAP log2FC,Gene 1611,-0.163
same,DAPK1 log2FC,Gene 1612,0.477
same,DAPK3 log2FC,Gene 1613,-0.075
same,DBH log2FC,Gene 1621,-0.084
same,DCC log2FC,Gene 1630,-0.032
same,GADD45A log2FC,Gene 1647,-0.795
same,DDIT3 log2FC,Gene 1649,2.078
same,DDX3X log2FC,Gene 1654,-1.134
same,DDX5 log2FC,Gene 1655,-1.225
same,DFFA log2FC,Gene 1676,-0.256
same,DFNA5 log2FC,Gene 1687,-0.030
same,DHCR24 log2FC,Gene 1718,-0.730
same,DHODH log2FC,Gene 1723,-0.198
same,NQO1 log2FC,Gene 1728,-0.052
same,DLX1 log2FC,Gene 1745,-0.636
same,DNASE1 log2FC,Gene 1773,0.269
same,DNASE1L3 log2FC,Gene 1776,-0.152
same,DNASE2 log2FC,Gene 1777,0.667
same,DOCK1 log2FC,Gene 1793,0.305
same,DPEP1 log2FC,Gene 1800,0.033
same,ATN1 log2FC,Gene 1822,-0.173
same,DSG1 log2FC,Gene 1828,-0.439
same,DSG2 log2FC,Gene 1829,0.213
same,DSG3 log2FC,Gene 1830,-0.053
same,TSC22D3 log2FC,Gene 1831,0.499
same,DSP log2FC,Gene 1832,0.622
same,DUSP1 log2FC,Gene 1843,-0.801
same,DUSP2 log2FC,Gene 1844,-2.156
same,DUSP6 log2FC,Gene 1848,-1.955
same,E2F1 log2FC,Gene 1869,-0.119
same,E2F2 log2FC,Gene 1870,-0.377
same,ECT2 log2FC,Gene 1894,0.836
same,EDN1 log2FC,Gene 1906,0.126
same,EDNRA log2FC,Gene 1909,0.064
same,EDNRB log2FC,Gene 1910,-0.042
same,EEF1A2 log2FC,Gene 1917,0.203
same,EFNA5 log2FC,Gene 1946,-0.125
same,EGFR log2FC,Gene 1956,0.479
same,EGR1 log2FC,Gene 1958,-2.608
same,EGR2 log2FC,Gene 1959,-0.367
same,EPHA2 log2FC,Gene 1969,-1.806
same,EIF5A log2FC,Gene 1984,-0.261
same,ENDOG log2FC,Gene 2021,-0.245
same,EP300 log2FC,Gene 2033,-0.124
same,EPHA7 log2FC,Gene 2045,-0.025
same,CLN8 log2FC,Gene 2055,-0.236
same,EPO log2FC,Gene 2056,-0.136
same,ERBB3 log2FC,Gene 2065,0.809
same,ERBB4 log2FC,Gene 2066,0.106
same,ERCC2 log2FC,Gene 2068,-0.269
same,ERCC3 log2FC,Gene 2071,-0.108
same,ERCC5 log2FC,Gene 2073,0.823
same,ERCC6 log2FC,Gene 2074,0.488
same,ERN1 log2FC,Gene 2081,-0.108
same,ESR1 log2FC,Gene 2099,-0.048
same,ESR2 log2FC,Gene 2100,-0.062
same,ETS1 log2FC,Gene 2113,-0.820
same,EYA2 log2FC,Gene 2139,-0.257
same,F2R log2FC,Gene 2149,0.377
same,F3 log2FC,Gene 2152,-0.177
same,PTK2B log2FC,Gene 2185,0.175
same,FCER1G log2FC,Gene 2207,-0.541
same,FGD1 log2FC,Gene 2245,-0.255
same,FGF4 log2FC,Gene 2249,0.019
same,FGF8 log2FC,Gene 2253,-0.135
same,FGF10 log2FC,Gene 2255,-0.00185
same,FGFR1 log2FC,Gene 2260,-0.374
same,FGFR3 log2FC,Gene 2261,-0.164
same,FGFR2 log2FC,Gene 2263,1.806
same,FHIT log2FC,Gene 2272,-0.336
same,FHL2 log2FC,Gene 2274,-0.078
same,FOXC1 log2FC,Gene 2296,-0.767
same,FOXC2 log2FC,Gene 2303,-0.284
same,FLT3 log2FC,Gene 2322,0.120
same,FLT4 log2FC,Gene 2324,-0.157
same,FNTA log2FC,Gene 2339,0.629
same,FXN log2FC,Gene 2395,-0.514
same,FRZB log2FC,Gene 2487,0.040
same,FYN log2FC,Gene 2534,0.082
same,G6PD log2FC,Gene 2539,-0.156
same,GABRA5 log2FC,Gene 2558,-0.0016
same,GABRB2 log2FC,Gene 2561,-0.080
same,GABRB3 log2FC,Gene 2562,-0.025
same,GAS1 log2FC,Gene 2619,0.756
same,GAS2 log2FC,Gene 2620,0.149
same,GATA1 log2FC,Gene 2623,-0.018
same,GATA3 log2FC,Gene 2625,-0.114
same,GDNF log2FC,Gene 2668,-0.175
same,B4GALT1 log2FC,Gene 2683,0.192
same,GJA1 log2FC,Gene 2697,-0.613
same,GCLC log2FC,Gene 2729,0.812
same,GLI3 log2FC,Gene 2737,0.540
same,GLO1 log2FC,Gene 2739,-0.070
same,GML log2FC,Gene 2765,-0.071
same,GNB1 log2FC,Gene 2782,-0.085
same,GNGT1 log2FC,Gene 2792,-0.037
same,GNRH1 log2FC,Gene 2796,0.097
same,SFN log2FC,Gene 2810,-1.150
same,GPLD1 log2FC,Gene 2822,-0.157
same,CXCR3 log2FC,Gene 2833,-0.474
same,GRK5 log2FC,Gene 2869,-0.059
same,MKNK2 log2FC,Gene 2872,-0.826
same,GPX1 log2FC,Gene 2876,0.431
same,GRID2 log2FC,Gene 2895,-0.052
same,GRIK2 log2FC,Gene 2898,0.091
same,GRIK5 log2FC,Gene 2901,-0.101
same,GRIN1 log2FC,Gene 2902,-0.444
same,GRIN2A log2FC,Gene 2903,-0.041
same,NR3C1 log2FC,Gene 2908,1.042
same,GRM4 log2FC,Gene 2914,-0.029
same,PDIA3 log2FC,Gene 2923,-0.085
same,GSK3A log2FC,Gene 2931,-0.030
same,GSK3B log2FC,Gene 2932,-0.455
same,GSN log2FC,Gene 2934,0.174
same,GSTP1 log2FC,Gene 2950,0.117
same,MSH6 log2FC,Gene 2956,-0.075
same,GZMH log2FC,Gene 2999,-0.148
same,GZMA log2FC,Gene 3001,-0.034
same,GZMB log2FC,Gene 3002,-0.002
same,GZMM log2FC,Gene 3004,-0.381
same,H1F0 log2FC,Gene 3005,0.834
same,HCK log2FC,Gene 3055,-0.033
same,HDAC1 log2FC,Gene 3065,-0.547
same,HDAC2 log2FC,Gene 3066,0.060
same,HELLS log2FC,Gene 3070,0.140
same,NCKAP1L log2FC,Gene 3071,0.054
same,HGF log2FC,Gene 3082,-0.198
same,NRG1 log2FC,Gene 3084,-1.164
same,HIC1 log2FC,Gene 3090,-0.122
same,HIF1A log2FC,Gene 3091,0.019
same,HIP1 log2FC,Gene 3092,-0.167
same,HINT1 log2FC,Gene 3094,0.210
same,HK2 log2FC,Gene 3099,-1.428
same,HMGB1 log2FC,Gene 3146,0.343
same,HMGB2 log2FC,Gene 3148,1.070
same,HMGCR log2FC,Gene 3156,0.051
same,HMOX1 log2FC,Gene 3162,1.050
same,NR4A1 log2FC,Gene 3164,-0.484
same,HOXA5 log2FC,Gene 3202,0.436
same,HOXA13 log2FC,Gene 3209,0.042
same,HRAS log2FC,Gene 3265,-0.758
same,HRG log2FC,Gene 3273,-0.015
same,PRMT2 log2FC,Gene 3275,0.289
same,HSPA1A log2FC,Gene 3303,-2.361
same,HSPA5 log2FC,Gene 3309,-0.793
same,HSPB1 log2FC,Gene 3315,-0.135
same,HSP90AA1 log2FC,Gene 3320,0.717
same,HSP90AB1 log2FC,Gene 3326,-0.430
